A short description of data set [1]: side effects observed after injection in spinal nerve ligated rats. It counts as in vivo, rat.
In data set [2] the test system is rat paw withdrawal model of acute thermal pain. The experiment in a line: rat paw withdrawal model of acute thermal pain, normal rats. Format: in vivo. The note with it: A-85380 0.75 μmol/kg. From the text:
For the assessment of acute pain, a paw thermal stimulator was used to evaluate nociceptive responses to an acute thermal stimulus (Anesthesiology Research Laboratory, Department of Anesthesiology, University of California at San Diego, La Jolla, Calif.). The device and behavioral procedure have been described previously (Hargreaves et al., A new and sensitive method for measuring thermal nociception in cutaneous hyperalgesia, Pain 1988, 32:77-88; Dirig et al., Characterization of variables defining hind paw withdrawal latency evoked by radiant thermal stimuli, J. Neurosci. Meth. 1997; 76:183-191). […] The measured nociceptive response was the latency to withdraw the hind paw when heated by light from a focused projector lamp (current set at 4.8 A). […]
(§1) For acute thermal pain experiments, a baseline withdrawal threshold was determined, and then chlorisondamine or its vehicle was administered. […]
For experiments with repeated measures, i.e. acute thermal pain and mechanical allodynia, data were first analyzed using a two way repeated measures analysis of variance (ANOVA) with two independent factors. For experiments without repeated measures, i.e. formalin, data were first analyzed using a two way ANOVA with two independent factors. […] All post hoc significance was determined using Fishers LSD.

For data set [3], the system named is formalin model of persistent pain. Description: formalin model of persistent pain, phase two. It counts as in vivo, rat. The note with it: A-85380 0.75 μmol/kg. Here is the method:
The formalin test was used as an assessment of persistent pain. The method, described previously (Bannon et al. 1998) is briefly as follows. Following acclimation to the test environment, 50 μl of a 5% formalin solution was injected subcutaneously into the dorsal surface of one of the rear paws. Only phase two, defined as the 20 minute period from 30 to 50 minutes post formalin injection, was scored for nocifensive behaviors including flinching, licking, and biting.
For formalin experiments, chlorisondamine or its vehicle was infused either 24 h or 40-50 minutes prior to further manipulation. A-85380 was then injected and, 5 minutes later, formalin was injected into the paw. Measures were taken between 30 and 50 minutes post formalin injection.
For experiments with repeated measures, i.e. acute thermal pain and mechanical allodynia, data were first analyzed using a two way repeated measures analysis of variance (ANOVA) with two independent factors. For experiments without repeated measures, i.e. formalin, data were first analyzed using a two way ANOVA with two independent factors. If there was a significant interaction of both factors or of both factors and time, subsequent post hoc one way ANOVAs were performed using each treatment combination as an independent group. The difference in paw withdrawal latencies between the affected and unaffected paw of neuropathic animals tested in acute thermal pain was assessed using a paired t-test. All post hoc significance was determined using Fishers LSD.

Data set [4] has as its system rat spinal nerve ligation model of neuropathic pain. The experiment in a line: mechanical allodynia (von Frey) in the spinal nerve ligation model of neuropathic pain. It counts as in vivo. From the text: (§2) Under halothane anesthesia, the L5 and L6 spinal nerves were tightly ligated in the manner described previously by Chung et al. (Kim S. H., Chung J. M., An experimental model for peripheral neuropathy produced by segmental spinal nerve ligation in the rat. Pain 1992; 50:355-363.). Briefly, an incision was made on the dorsal portion of the hip, and the muscle was blunt dissected to reveal the spinal processes. The L6 transverse process was removed, and the left L5 and L6 spinal nerves were tightly ligated with 5.0 braided silk suture. The wound was cleaned, the membrane sewn with 4.0 dissolvable Vicryl suture and the skin closed with wound clips.
Implantation of the DRG catheters was performed immediately following nerve ligation, with animals maintained under halothane for the entire procedure (35-40 minutes). Catheters were constructed of PE 20 with small pieces of tygon tubing cemented along the catheter to allow for suture anchoring points during surgery. The left L5 DRG was exposed by removing the posterior articular process of the L5 vertebra. Gelfoam was inserted into the cavity to prevent the catheter from damaging the ganglion. The catheter was sutured to the muscle and fascia, then run subcutaneously to exteriorize between the shoulder blades. Saline was infused into the catheter, and it was heat sealed.
The implantation of i.c.v. cannulae were conducted under sodium pentobarbital (50 mg/kg, i.p. Nembutal) anesthesia with nerve ligation occurring just after the implantation; animals were maintained under anesthesia for the entire procedure (40-45 minutes). Animals were implanted with a 22 gauge guide cannulae (Plastics One, Roanoke Va.) cut to 6 mm. The stereotaxic coordinates from bregma were 1.0 mm posterior, 1.6 mm lateral, and 4.5 ventral (Paxinos G. and Watson C., The rat brain in stereotaxic coordinates. New York: Academic Press, 1997). Three skull screws were attached for stability, and the implant was covered with cranioplastic acrylic.
For i.c.v. (intracerebroventricular) infusion, chlorisondamine (10 μg) was dissolved in 5 μl phosphate buffered saline and infused by syringe pump at a rate of 5 μl/min. The infusion was performed 24 hours prior to testing in order to reduce stress to the animals immediately prior to behavioral testing.
For all other routes of administration including intraperotineal (i.p.), intradermal (i.d.) or onto the DRG, chlorisondamine was dissolved in saline. The final volumes for i.p. injections were 1 ml/kg, for i.d. were 50 μl and for DRG injections were 10 μl. All injections were made by hand held syringe.
For the assessment of neuropathic pain, mechanical allodynia in the affected paw of animals who had undergone spinal nerve ligation was evaluated using von Frey filaments. As described previously (Chaplan et al., Quantitative assessment of tactile allodynia in the rat paw. J Neurosci Meth, 1994; 53:55-62), two weeks following surgery, rats were acclimated to the testing box which was constructed of plexiglass with a wire mesh floor to allow access to the planter surface of the hind paws. Using the Dixons Up-Down method, a baseline level of allodynia was taken with allodynia defined as a withdrawal threshold ≦4 g. Test compounds were then administered and subsequent withdrawal thresholds determined.
For spinal nerve ligation experiments, the timing of antagonist administration depended upon the route of administration. With i.c.v. administration, chlorisondamine or its vehicle was given 24 hours prior to further manipulation. On the day of the experiment, a baseline allodynia score was determined and then A-85380 or its vehicle control was given and measures taken at 15, 30 and 60 minutes post agonist injection. Dose response curves for i.p., i.d. and DRG administration were also determined using this time line. […]

In data set [5] the test system is rat paw withdrawal model of acute thermal pain using neuropathic rats. Description: rat paw withdrawal model of acute thermal pain using neuropathic rats. The note with it: antagonist 0.4 μmol/kg, i.p., A-85380 0.75 μmol/kg. Format: in vivo.
Excerpt: as §2
For the assessment of acute pain, a paw thermal stimulator was used to evaluate nociceptive responses to an acute thermal stimulus (Anesthesiology Research Laboratory, Department of Anesthesiology, University of California at San Diego, La Jolla, Calif.). […] The measured nociceptive response was the latency to withdraw the hind paw when heated by light from a focused projector lamp (current set at 4.8 A). […]
as §1
To address this concern, neuropathic rats were assessed in the acute thermal model of paw withdrawal. […]

The text below walks through data of US20030216448A1, “Treatment of neuropathic pain” (priority 2002, published 2003).

Structures can show the parent of a compound that is named as a salt.

Take `Cl.Cl.c1cncc(OC[C@@H]2CCN2)c1` [A-85380, 3-(2(S)-azetidinylmethoxy)pyridine dihydrochloride]: in data set [1] (A-85380 0.5-1.0 μmol/kg, i.p.), the “behaviors induced immediately following injection” value is “prostration and ataxia”; the “time point by which prostration and ataxia abated” value was no more than 15 min. Further, the “antinociception (increase in paw withdrawal latency)” value in data set [2] (i.p.) is given as “antinociceptive action”. For the same compound, the “analgesia (decrease in flinches), phase two of formalin test” value in data set [3] (i.p.) was “analgesic effects”. For the same compound, the “duration of anti-allodynia after DRG infusion” value in data set [4] (10 μg onto the L5 DRG) turned out to be 15 min. Further, in data set [4] (20 μg onto the L5 DRG), the “duration of anti-allodynia after DRG infusion” value worked out at 30 min. Besides, the “anti-allodynia after ipsalateral paw injection” value in data set [4] (10, 20 and 50 μg/rat, i.d., affected paw, predominately at 15 minutes) was “only the 50 μg dose of A-85380 had an anti-allodynic effect”. Moreover, in data set [4] (10, 20 and 50 μg/rat, i.d., unaffected paw, predominately at 15 minutes), the “anti-allodynia after contralateral paw injection” value is “all three doses of A-85380 induced a significant anti-allodynia”. For the same compound, the “anti-allodynia when infused onto the L5 DRG” value in data set [4] (10 and 20 μg onto the L5 DRG on the side of the ligation) is given as “significant anti-allodynia”. Moreover, the “potency to increase paw withdrawal threshold, DRG compared with i.p. and i.d. administration” value in data set [4] (i.d. and DRG doses converted to equivalent systemic dose, fifteen-minute time point) was “decidedly more potent when administered directly onto the DRG”. The “anti-allodynia (paw withdrawal threshold), systemic administration” value in data set [4] (i.p., multiple doses, 15, 30 and 60 minutes) was “dose dependent anti-allodynia”.
For `O=C(NO)c1cncc(N2C[C@H]3CNC[C@H]32)c1` [A-420503, (IR, 5S) 5-(3,6-diazabicyclo [3.2.0]hept-6-yl)-N-hydroxy-nicotinamide], the “side effects when injected i.p.” value in data set [1] (62 μmol/kg, i.p.) is “without any notable side effects”. Also, the “anti-allodynia at the DRG” value in data set [4] (4.77 μmol/kg, i.p.) is “significant anti-allodynia”. For the same compound, the “anti-allodynia when injected i.p.” value in data set [4] (62 μmol/kg, i.p.) is recorded as “significant anti-allodynia”. Moreover, the “effect of antagonist pretreatment on the compound's effects at the DRG” value in data set [4] (pretreatment with an NMR antagonist) is “blocked”.
As for `C[N+](C)(C)CCCCCC[N+](C)(C)C` [Hexamethonium, hexamethonium], in data set [4] (antagonist 19 μmol/kg, i.p. 30 minutes prior, A-85380 0.75 μmol/kg, i.p.), the “effect of systemically administered antagonist on A-85380 induced anti-allodynia” value is on record as “blocked”.
For `CNC1(C)C2CCC(C2)C1(C)C` (stereo not shown) [Mecamylamine, mecamylamine hydrochloride], the “effect of antagonist on prostration and ataxia following A-85380 injection” value in data set [1] (antagonist 1 μmol/kg, i.p. 30 minutes prior to A-85380) was “blocked the prostration and ataxia”. The “effect of antagonist pretreatment on A-85380 induced anti-allodynia” value in data set [4] (antagonist 1 μmol/kg, i.p. 30 minutes prior, A-85380 0.75 μmol/kg, i.p.) was “completely blocked”.
Consider `C[N+](C)(C)CC[N+]1(C)Cc2c(Cl)c(Cl)c(Cl)c(Cl)c2C1` [chlorisondamine, chlorisondamine diiodide], for which the “effect of antagonist on A-85380 induced antinociception in neuropathic rats” value in data set [5] is listed as “did not alter”. For the same compound, the “effect of antagonist pretreatment on the antinociceptive action of A-85380” value in data set [2] (antagonist 0.4 μmol/kg, i.p. 30 minutes prior) is “no effect”. Also, the “effect of systemically administered antagonist on A-85380-induced analgesia” value in data set [3] (antagonist 0.4 μmol/kg, i.p. 40-50 minutes prior to formalin) was “no significant attenuation”. Besides, in data set [3] (antagonist 10 μg i.c.v. 24 hours prior, i.p.), the “effect of i.c.v. antagonist on A-85380-induced analgesia” value is recorded as “completely blocked”. In addition, in data set [4] (antagonist 0.4 μmol/kg, i.p. 30 minutes prior, A-85380 0.75 μmol/kg, i.p.), the “effect of systemically administered antagonist on A-85380 induced anti-allodynia” value is “completely blocked”. The “effect of systemic antagonist on anti-allodynia induced by A-85380 infused onto the DRG” value in data set [4] (antagonist 0.4 μmol/kg, i.p. 30 minutes prior, A-85380 20 μg onto DRG) was “completely blocked”. The “effect of i.c.v. antagonist on A-85380 induced anti-allodynia” value in data set [4] (antagonist 10 μg i.c.v. 24 hours prior, A-85380 0.75 μmol/kg, i.p.) is listed as “completely blocked”.
